Like-named read-outs stand apart in the source and are kept apart here.
Key:
hT2R9 = hT2R9 (Homo sapiens (Human), UniProt Q9NYW1); experiment: hT2R panel inhibition, transient HEK293 G16g44, agonist Ofloxacin 1 mM; assay type: cell-based; settings: HEK293, compound at 25 μM
Method in brief: (§1)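 Here, inhibition reflects how much the test compound lowers activation of a transiently expressed human bitter receptor stimulated at EC80. Twenty-two such receptors were tested separately.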

hT2R44 = experiment: hT2R panel inhibition, transient HEK293 G16g44, agonist Denatonium 0.5 μM; assay type: cell-based, human; settings: compound at 25 μM
Method in brief: as §1

hT2R3 = hT2R3 (Homo sapiens (Human), UniProt Q9NYW6); experiment: hT2R panel inhibition, transient HEK293 G16g44, agonist Chloroquine pH6.5 50 μM; assay type: cell-based; settings: HEK293, compound at 25 μM
Method in brief: as §1

hT2R8 = hT2R8 (Homo sapiens (Human), UniProt Q9NYW2); experiment: hT2R panel inhibition, transient HEK293 G16g44, agonist Andrographolide 0.5 mM; assay type: cell-based; settings: HEK293, compound at 25 μM
Procedure: Specifically, in order to evaluate the inhibitory selectivity of the Compound C compound, this compound was tested against 22 human T2Rs which were deorphaned by Senomyx. These receptors and the bitter ligands that activate these human T2Rs are reported in earlier patent applications which are incorporated by reference herein. These 22 human T2Rs are hT2R1, 3, 4, 5, 7, 8, 9, 10, 13, 14, 16, 44, 51, 54, 55, 61, 63, 64, 65, 67, 71 and 75. The amino acid and nucleic acid sequences of all of these T2Rs may be found in these earlier patent applications. These human T2Rs were each individually transiently transfected into HEK293 cells that stably express the promiscuous G protein G16g44 and functional assays were effected using these receptors as disclosed in these same patent applications. […] The ligands were used at EC80 concentration levels. The list of bitter ligands utilized and the tested ligand concentrations are contained in Table 5 of this example.

hT2R55 = experiment: hT2R panel inhibition, transient HEK293 G16g44, agonist Cinchonine 150 μM; assay type: cell-based, human; settings: compound at 25 μM; receptor activated to EC80 with agonist
Method in brief: as §1

hT2R16 = hT2R16 (Homo sapiens (Human), UniProt Q9NYV7); experiment: hT2R panel inhibition, transient HEK293 G16g44, agonist Salicin 1 mM; assay type: cell-based; settings: HEK293, compound at 25 μM
Method in brief: as §1

hT2R61 = hT2R61 (Homo sapiens (Human), UniProt P59537); experiment: hT2R panel inhibition, transient HEK293 G16g44, agonist Aristolochic Acid 25 nM; assay type: cell-based; settings: HEK293, compound at 25 μM
Method in brief: as §1

hT2R14 [1] = biological target: T1, hT2R14 (Homo sapiens (Human), UniProt Q9NYV8); experiment: hT2R panel inhibition, transient HEK293 G16g44, agonist Aristolochic Acid 2 μM; assay type: cell-based; settings: HEK293, compound at 25 μM
Method in brief: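 Each hT2R was transiently transfected into HEK293 cells stably expressing G16g44 and assayed functionally for inhibition of agonist response. Agonists were applied at EC80: andrographolide at 0.5 mM for hT2R8 and aristolochic acid at 2 μM for hT2R14.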

hT2R63 = experiment: hT2R panel inhibition, transient HEK293 G16g44, agonist Caffeine 1 mM or Andrographolide 100 μM; assay type: cell-based, human; settings: compound at 25 μM; receptor activated to EC80 with agonist
Method in brief: as §1

hT2R5 = hT2R5 (Homo sapiens (Human), UniProt Q9NYW4); experiment: hT2R panel inhibition, transient HEK293 G16g44, agonist Picoline 10 mM; assay type: cell-based; settings: HEK293, compound at 25 μM
Method in brief: as §1

hT2R64 = hT2R64 (Homo sapiens (Human), UniProt P59538); experiment: hT2R panel inhibition, transient HEK293 G16g44, agonist Aristolochic Acid 1 μM; assay type: cell-based; settings: HEK293, compound at 25 μM; receptor activated to EC80 with agonist; read-out: inhibition of bitter receptor 64
Method in brief: as §1

hT2R4 = hT2R4 (Homo sapiens (Human), UniProt Q9NYW5); experiment: hT2R panel inhibition, transient HEK293 G16g44, agonist Chloroquine pH6.5 5 mM; assay type: cell-based; settings: HEK293, compound at 25 μM
Method in brief: as §1

hT2R67 = experiment: hT2R panel inhibition, transient HEK293 G16g44, agonist Andrographolide 5 μM; assay type: cell-based, human; settings: compound at 25 μM; receptor activated to EC80 with agonist
Method in brief: as §1

hT2R10 = hT2R10 (Homo sapiens (Human), UniProt Q9NYW0); experiment: hT2R panel inhibition, transient HEK293 G16g44, agonist Strychnine 50 μM; assay type: cell-based; settings: HEK293, read-out: inhibition of bitter receptor 10, compound at 25 μM; receptor activated to EC80 with agonist
hT2R65 = experiment: hT2R panel inhibition, transient HEK293 G16g44, agonist Oleuropein 1 mM; assay type: cell-based, human; settings: compound at 25 μM; receptor activated to EC80 with agonist
Method in brief: as §1

hT2R54 = experiment: hT2R panel inhibition, transient HEK293 G16g44, agonist Ranitidine 5 mM; assay type: cell-based, human; settings: compound at 25 μM; receptor activated to EC80 with agonist
Method in brief: as §1

hT2R51 = hT2R51 (Homo sapiens (Human), UniProt P59533); experiment: hT2R panel inhibition, transient HEK293 G16g44, agonist Prop 2.5 μM; assay type: cell-based; settings: HEK293, compound at 25 μM
Method in brief: as §1

hT2R7 = hT2R7 (Homo sapiens (Human), UniProt Q9NYW3); experiment: hT2R panel inhibition, transient HEK293 G16g44, agonist Chloroquine pH6.5 10 mM; assay type: cell-based; settings: HEK293, compound at 25 μM
Method in brief: as §1

hT2R71 = hT2R71 (Homo sapiens (Human), UniProt P59536); experiment: hT2R panel inhibition, transient HEK293 G16g44, agonist Picric Acid 10 μM; assay type: cell-based; settings: HEK293, compound at 25 μM; receptor activated to EC80 with agonist; read-out: inhibition of bitter receptor 71
Method in brief: as §1

hT2R13 = hT2R13 (Homo sapiens (Human), UniProt Q9NYV9); experiment: hT2R panel inhibition, transient HEK293 G16g44, agonist Oxyphenonium 1 mM; assay type: cell-based; settings: HEK293, compound at 25 μM
Method in brief: as §1

hT2R75 = hT2R75 (Homo sapiens (Human), UniProt P59540); experiment: hT2R panel inhibition, transient HEK293 G16g44, agonist Strychnine 1 μM; assay type: cell-based; settings: HEK293, read-out: screening result against bitter receptor 75, compound at 25 μM; receptor activated to EC80 with the corresponding agonist
hT2R14 [2] = biological target: T1, hT2R14; experiment: hT2R14 antagonist high-throughput FLIPR assay, stable cell line with G16g44, agonist aristolochic acid; assay type: cell-based; settings: read-out: IC50 on hT2R14 bitter receptor
Method in brief: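 HEK293 cells stably expressing hT2R14 with chimeric G16g44 were stimulated with aristolochic acid (3 μM), giving 70-80% of maximal receptor activity. Test compounds were added together with the agonist, and antagonism was read as fluorescent calcium signal on FLIPR.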

[3] = receptor activated to EC80 with the corresponding agonist, read-out: screening result against bitter receptor 9
[4] = receptor activated to EC80 with the corresponding agonist, read-out: screening result against bitter receptor 8

hT2R8, sequence (Q9NYW2 whole entry): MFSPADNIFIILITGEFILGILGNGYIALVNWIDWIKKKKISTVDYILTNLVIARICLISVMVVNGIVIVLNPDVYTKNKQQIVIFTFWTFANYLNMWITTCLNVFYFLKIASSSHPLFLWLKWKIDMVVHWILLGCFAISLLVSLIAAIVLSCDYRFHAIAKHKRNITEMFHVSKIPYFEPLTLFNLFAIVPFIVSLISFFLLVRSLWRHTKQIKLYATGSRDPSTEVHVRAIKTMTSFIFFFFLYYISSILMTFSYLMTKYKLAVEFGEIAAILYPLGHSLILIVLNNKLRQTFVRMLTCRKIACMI
T1 sequence (Q9NYV8 whole entry): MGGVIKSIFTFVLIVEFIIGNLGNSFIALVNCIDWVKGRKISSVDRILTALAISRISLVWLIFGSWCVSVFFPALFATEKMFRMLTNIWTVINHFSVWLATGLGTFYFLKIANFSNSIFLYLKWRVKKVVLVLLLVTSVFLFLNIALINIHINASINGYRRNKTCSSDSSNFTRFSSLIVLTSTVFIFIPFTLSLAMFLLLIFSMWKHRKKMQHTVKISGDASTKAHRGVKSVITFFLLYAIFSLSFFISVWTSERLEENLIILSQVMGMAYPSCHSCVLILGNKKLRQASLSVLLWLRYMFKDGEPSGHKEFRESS
hT2R9, sequence (Q9NYW1 whole entry): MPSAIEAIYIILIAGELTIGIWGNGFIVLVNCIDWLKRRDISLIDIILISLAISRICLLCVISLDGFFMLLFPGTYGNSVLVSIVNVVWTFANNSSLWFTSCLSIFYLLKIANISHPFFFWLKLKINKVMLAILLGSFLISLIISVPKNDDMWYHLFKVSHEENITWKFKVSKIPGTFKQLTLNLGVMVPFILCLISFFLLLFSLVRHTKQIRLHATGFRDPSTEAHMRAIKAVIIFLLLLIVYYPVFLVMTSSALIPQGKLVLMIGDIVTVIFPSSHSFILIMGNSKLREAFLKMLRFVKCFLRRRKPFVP
hT2R61, sequence (P59537 whole entry): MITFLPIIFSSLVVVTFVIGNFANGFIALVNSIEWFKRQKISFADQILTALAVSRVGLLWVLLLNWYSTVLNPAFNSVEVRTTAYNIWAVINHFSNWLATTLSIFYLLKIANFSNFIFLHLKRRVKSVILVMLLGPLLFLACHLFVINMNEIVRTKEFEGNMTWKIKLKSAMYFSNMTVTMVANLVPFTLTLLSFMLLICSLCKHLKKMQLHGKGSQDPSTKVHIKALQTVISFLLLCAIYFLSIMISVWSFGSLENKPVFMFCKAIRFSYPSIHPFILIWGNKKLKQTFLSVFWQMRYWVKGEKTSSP
hT2R16, sequence (Q9NYV7 whole entry): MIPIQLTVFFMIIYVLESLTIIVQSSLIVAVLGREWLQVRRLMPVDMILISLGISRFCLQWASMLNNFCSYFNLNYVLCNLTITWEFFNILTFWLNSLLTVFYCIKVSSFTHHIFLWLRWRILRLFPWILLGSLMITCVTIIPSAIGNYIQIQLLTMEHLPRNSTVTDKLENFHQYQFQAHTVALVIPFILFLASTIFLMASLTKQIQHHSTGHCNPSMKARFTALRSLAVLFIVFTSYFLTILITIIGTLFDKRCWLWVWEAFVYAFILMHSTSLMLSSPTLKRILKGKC
hT2R51, sequence (P59533 whole entry): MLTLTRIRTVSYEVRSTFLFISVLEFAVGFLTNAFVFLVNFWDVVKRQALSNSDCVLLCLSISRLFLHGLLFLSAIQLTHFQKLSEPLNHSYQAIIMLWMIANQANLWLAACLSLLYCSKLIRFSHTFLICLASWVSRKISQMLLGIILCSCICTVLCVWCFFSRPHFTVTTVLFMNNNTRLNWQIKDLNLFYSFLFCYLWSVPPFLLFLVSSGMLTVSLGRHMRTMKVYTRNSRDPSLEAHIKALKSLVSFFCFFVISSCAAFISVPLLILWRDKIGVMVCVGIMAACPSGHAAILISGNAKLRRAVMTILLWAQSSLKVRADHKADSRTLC
hT2R4, sequence (Q9NYW5 whole entry): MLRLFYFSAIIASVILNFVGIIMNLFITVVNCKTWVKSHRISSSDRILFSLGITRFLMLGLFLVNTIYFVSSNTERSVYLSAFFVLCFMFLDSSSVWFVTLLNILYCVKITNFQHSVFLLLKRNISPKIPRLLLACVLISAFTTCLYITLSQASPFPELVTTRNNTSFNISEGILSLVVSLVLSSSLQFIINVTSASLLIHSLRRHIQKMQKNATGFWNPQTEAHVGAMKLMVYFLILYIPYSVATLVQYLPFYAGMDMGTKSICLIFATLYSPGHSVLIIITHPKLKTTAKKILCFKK
hT2R13, sequence (Q9NYV9 whole entry): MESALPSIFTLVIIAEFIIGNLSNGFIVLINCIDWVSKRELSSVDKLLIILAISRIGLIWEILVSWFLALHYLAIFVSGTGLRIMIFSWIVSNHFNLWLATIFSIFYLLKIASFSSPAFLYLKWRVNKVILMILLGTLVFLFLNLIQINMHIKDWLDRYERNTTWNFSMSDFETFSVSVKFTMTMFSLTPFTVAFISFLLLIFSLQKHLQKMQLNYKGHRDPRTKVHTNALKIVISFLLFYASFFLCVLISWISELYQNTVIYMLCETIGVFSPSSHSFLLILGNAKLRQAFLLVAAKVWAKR
hT2R7, sequence (Q9NYW3 whole entry): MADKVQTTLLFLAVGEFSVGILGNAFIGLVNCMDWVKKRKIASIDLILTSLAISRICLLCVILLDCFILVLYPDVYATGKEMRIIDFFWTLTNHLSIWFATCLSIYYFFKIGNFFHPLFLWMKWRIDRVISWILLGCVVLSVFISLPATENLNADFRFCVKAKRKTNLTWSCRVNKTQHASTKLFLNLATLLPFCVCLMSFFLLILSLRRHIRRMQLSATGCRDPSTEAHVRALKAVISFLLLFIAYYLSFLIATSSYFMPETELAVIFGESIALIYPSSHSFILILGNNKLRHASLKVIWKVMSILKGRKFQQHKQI
hT2R3, sequence (Q9NYW6 whole entry): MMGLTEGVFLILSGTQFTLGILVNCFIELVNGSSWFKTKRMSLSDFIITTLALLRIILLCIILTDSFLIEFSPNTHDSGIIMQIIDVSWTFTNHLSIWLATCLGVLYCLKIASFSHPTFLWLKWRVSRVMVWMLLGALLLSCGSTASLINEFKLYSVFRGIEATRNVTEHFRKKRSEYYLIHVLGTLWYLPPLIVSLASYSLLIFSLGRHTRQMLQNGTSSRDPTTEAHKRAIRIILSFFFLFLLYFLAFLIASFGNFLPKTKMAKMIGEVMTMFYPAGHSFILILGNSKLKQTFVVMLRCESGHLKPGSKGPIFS
hT2R5, sequence (Q9NYW4 whole entry): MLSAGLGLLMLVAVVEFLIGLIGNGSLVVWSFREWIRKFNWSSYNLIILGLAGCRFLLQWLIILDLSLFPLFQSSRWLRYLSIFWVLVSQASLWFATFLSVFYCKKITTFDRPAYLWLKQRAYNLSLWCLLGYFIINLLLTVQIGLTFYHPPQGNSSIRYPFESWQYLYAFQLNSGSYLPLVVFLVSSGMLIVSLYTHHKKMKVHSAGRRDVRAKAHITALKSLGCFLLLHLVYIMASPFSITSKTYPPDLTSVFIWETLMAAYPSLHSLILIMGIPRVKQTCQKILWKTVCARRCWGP
hT2R64, sequence (P59538 whole entry): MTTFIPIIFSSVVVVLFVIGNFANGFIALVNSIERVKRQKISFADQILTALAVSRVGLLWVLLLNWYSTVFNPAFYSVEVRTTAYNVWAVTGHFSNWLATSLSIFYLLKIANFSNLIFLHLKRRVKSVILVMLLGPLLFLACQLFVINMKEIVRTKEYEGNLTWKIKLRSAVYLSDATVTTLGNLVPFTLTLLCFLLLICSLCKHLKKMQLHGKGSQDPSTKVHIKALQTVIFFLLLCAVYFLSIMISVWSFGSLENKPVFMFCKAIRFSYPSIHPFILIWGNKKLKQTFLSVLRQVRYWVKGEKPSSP
hT2R10, sequence (Q9NYW0 whole entry): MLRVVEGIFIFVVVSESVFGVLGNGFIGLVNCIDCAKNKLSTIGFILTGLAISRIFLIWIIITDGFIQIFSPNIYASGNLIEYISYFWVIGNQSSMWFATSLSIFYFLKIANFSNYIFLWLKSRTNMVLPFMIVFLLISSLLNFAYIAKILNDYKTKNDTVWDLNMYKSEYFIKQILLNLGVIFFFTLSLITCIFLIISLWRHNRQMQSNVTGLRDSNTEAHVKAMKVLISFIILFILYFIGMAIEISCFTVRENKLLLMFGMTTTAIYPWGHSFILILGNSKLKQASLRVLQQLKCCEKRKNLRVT
hT2R71, sequence (P59536 whole entry): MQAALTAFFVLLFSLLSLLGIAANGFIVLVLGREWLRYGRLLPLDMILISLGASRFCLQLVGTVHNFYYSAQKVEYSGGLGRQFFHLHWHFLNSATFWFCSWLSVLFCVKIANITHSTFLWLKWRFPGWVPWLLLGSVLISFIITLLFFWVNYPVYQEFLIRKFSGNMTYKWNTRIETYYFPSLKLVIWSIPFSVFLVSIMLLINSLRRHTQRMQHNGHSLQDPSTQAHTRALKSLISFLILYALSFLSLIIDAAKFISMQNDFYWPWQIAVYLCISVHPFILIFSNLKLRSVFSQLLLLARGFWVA
hT2R75, sequence (P59540 whole entry): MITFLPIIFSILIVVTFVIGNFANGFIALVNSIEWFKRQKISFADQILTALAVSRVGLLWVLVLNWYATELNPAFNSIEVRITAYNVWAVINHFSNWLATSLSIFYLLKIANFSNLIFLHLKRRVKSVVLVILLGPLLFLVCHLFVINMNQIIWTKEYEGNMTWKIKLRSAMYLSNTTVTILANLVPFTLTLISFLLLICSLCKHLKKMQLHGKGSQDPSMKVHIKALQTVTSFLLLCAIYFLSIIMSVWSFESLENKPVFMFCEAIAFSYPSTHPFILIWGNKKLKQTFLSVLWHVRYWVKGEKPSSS

COc1ccc(CN(Cc2ccc(C)cc2)S(=O)(=O)c2ccc(C(=O)O)cc2)cc1 [Example 5-66, 4-(N-(4-methoxybenzyl)-N-(4-methylbenzyl)sulfamoyl)benzoic acid]
inhibition at 25 µM (hT2R9; [3]): 20 to 40% | screening result against bitter receptor 44 (hT2R44; receptor activated to EC80 with the corresponding agonist): + (20% to 40% inhibition = +) | inhibition at 25 µM (hT2R3; receptor activated to EC80 with the corresponding agonist, read-out: screening result against bitter receptor 3): 20 to 40% | inhibition at 25 µM (hT2R8; [4]): 20 to 40%

CC(C)Oc1ccc(CN(Cc2ccccc2)S(=O)(=O)c2ccc(C(=O)O)cc2)cc1 [Example 5-110, 4-(N-benzyl-N-(4-isopropoxybenzyl)sulfamoyl)benzoic acid]
inhibition of bitter receptor 55 (hT2R55): ++++ (80% or greater inhibition = ++++) | inhibition at 25 µM (hT2R16; receptor activated to EC80 with agonist, read-out: inhibition of bitter receptor 16): 20 to 40% | inhibition at 25 µM (hT2R61; receptor activated to EC80 with agonist, read-out: inhibition of bitter receptor 61): > 80% | inhibition at 25 µM (hT2R14 [1]; receptor activated to EC80 with agonist, read-out: inhibition of bitter receptor 14): > 80% | inhibition of bitter receptor 63 (hT2R63): +++ (60% to 80% inhibition = +++) | inhibition at 25 µM (hT2R5; receptor activated to EC80 with agonist, read-out: inhibition of bitter receptor 5): 20 to 40% | inhibition at 25 µM (hT2R64): 60 to 80% | inhibition at 25 µM (hT2R4; receptor activated to EC80 with agonist, read-out: inhibition of bitter receptor 4): 60 to 80% | inhibition of bitter receptor 67 (hT2R67): + (20% to 40% inhibition = +) | inhibition at 25 µM (hT2R9; receptor activated to EC80 with agonist, read-out: inhibition of bitter receptor 9): 20 to 40% | inhibition at 25 µM (hT2R10): 40 to 60% | inhibition of bitter receptor 44 (hT2R44; receptor activated to EC80 with agonist): +++ (60% to 80% inhibition = +++) | inhibition of bitter receptor 65 (hT2R65): +++ (60% to 80% inhibition = +++) | inhibition of bitter receptor 54 (hT2R54): + (20% to 40% inhibition = +) | inhibition at 25 µM (hT2R51; receptor activated to EC80 with agonist, read-out: inhibition of bitter receptor 51): 40 to 60% | inhibition at 25 µM (hT2R3; receptor activated to EC80 with agonist, read-out: inhibition of bitter receptor 3): 40 to 60% | inhibition at 25 µM (hT2R7; receptor activated to EC80 with agonist, read-out: inhibition of bitter receptor 7): 40 to 60% | inhibition at 25 µM (hT2R8; receptor activated to EC80 with agonist, read-out: inhibition of bitter receptor 8): 20 to 40% | inhibition at 25 µM (hT2R71): 60 to 80% | inhibition at 25 µM (hT2R13; receptor activated to EC80 with agonist, read-out: inhibition of bitter receptor 13): 20 to 40%

COc1ccc(CN(Cc2ccccc2)S(=O)(=O)c2ccc(C(=O)O)cc2)cc1 [Example 5-1, 4-(N-benzyl-N-(4-methoxybenzyl)sulfamoyl)benzoic acid]
inhibition at 25 µM (hT2R16; receptor activated to EC80 with the corresponding agonist, read-out: screening result against bitter receptor 16): 40 to 60% | inhibition at 25 µM (hT2R61; receptor activated to EC80 with the corresponding agonist, read-out: screening result against bitter receptor 61): > 80% | inhibition at 25 µM (hT2R14 [1]; receptor activated to EC80 with the corresponding agonist, read-out: screening result against bitter receptor 14): > 80% | inhibition at 25 µM (hT2R5; receptor activated to EC80 with the corresponding agonist, read-out: screening result against bitter receptor 5): 20 to 40% | inhibition at 25 µM (hT2R75): 20 to 40% | inhibition at 25 µM (hT2R4; receptor activated to EC80 with the corresponding agonist, class symbols, read-out: screening result against bitter receptor 4): 20 to 40% | inhibition at 25 µM (hT2R9; [3]): 20 to 40% | inhibition at 25 µM (hT2R51; receptor activated to EC80 with the corresponding agonist, read-out: screening result against bitter receptor 51): 60 to 80% | melting point: 161 to 163 °C | inhibition at 25 µM (hT2R7; receptor activated to EC80 with the corresponding agonist, read-out: screening result against bitter receptor 7): 40 to 60% | inhibition at 25 µM (hT2R8; [4]): 20 to 40% | inhibition at 25 µM (hT2R13; receptor activated to EC80 with the corresponding agonist, read-out: screening result against bitter receptor 13): 20 to 40% | IC50 (hT2R14 [2]): 220 nM

Reference: patent publication US9247759B2, “Identification of human T2R receptors that respond to bitter compounds that elicit the bitter taste in compositions, and the use thereof in assays to identify compounds that inhibit (block) bitter taste in compositions and use thereof” (SENOMYX, INC., priority 2007, dated 2016)
